Assay [1] addresses T1, neutral endopeptidase (Rattus norvegicus, UniProt P07861).
T1 sequence (P07861 1-750): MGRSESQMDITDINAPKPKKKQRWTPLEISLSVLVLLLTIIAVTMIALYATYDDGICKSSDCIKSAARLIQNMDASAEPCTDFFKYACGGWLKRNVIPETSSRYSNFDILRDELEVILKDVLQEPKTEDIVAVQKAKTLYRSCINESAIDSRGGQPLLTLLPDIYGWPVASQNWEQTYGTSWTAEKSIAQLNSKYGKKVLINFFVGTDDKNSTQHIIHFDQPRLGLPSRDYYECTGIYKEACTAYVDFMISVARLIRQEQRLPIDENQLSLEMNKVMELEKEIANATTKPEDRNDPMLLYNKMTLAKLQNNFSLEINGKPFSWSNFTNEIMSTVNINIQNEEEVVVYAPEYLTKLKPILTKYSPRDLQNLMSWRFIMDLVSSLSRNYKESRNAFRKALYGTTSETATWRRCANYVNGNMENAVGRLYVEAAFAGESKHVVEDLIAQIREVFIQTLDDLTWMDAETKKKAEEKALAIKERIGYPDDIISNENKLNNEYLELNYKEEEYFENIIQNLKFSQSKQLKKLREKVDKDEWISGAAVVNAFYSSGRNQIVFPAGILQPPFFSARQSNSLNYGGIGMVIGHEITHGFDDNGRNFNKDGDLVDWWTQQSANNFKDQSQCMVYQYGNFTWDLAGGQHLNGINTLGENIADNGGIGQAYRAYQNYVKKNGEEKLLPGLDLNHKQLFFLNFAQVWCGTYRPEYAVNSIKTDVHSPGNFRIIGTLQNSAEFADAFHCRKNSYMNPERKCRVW
Briefly: biochemical. Conditions: enzyme purified from rat kidney; Dns-Gly-Phe-Arg 0.5 mM; pH 7.5; 37°, 30 minutes; inhibitor preincubated 10 minutes. The method, boiled down:
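Rat kidney-purified enzyme in 0.05% Triton X-100 was preincubated 10 min with inhibitor in 50 mM Tris-HCl pH 7.5, then reacted with 0.5 mM Dns-Gly-Phe-Arg for 30 min at 37°. After HCl stop, Dns-Gly was extracted into ethyl acetate and its fluorescence read (ex 342/em 508 nm). IC50 came from multi-concentration runs.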

In assay [2] the test system is neutral endopeptidase. The note with it: in vivo; cited from earlier work.
Assay [3] has as its system neutral endopeptidase. Briefly: inhibition of neutral endopeptidase. It counts as biochemical.
The test system of assay [4] is pig kidney microvillar membranes. Conditions: in vitro; cited from earlier work.
Assay [5] has as its system enkephalinase. The note with it: cited from earlier work.

For orientation: IC50 means the concentration needed to halve the response being measured. High values mean weaker potency in that assay, low ones greater potency in that assay.

For `CC(C)C[C@H](NP(=O)(O)O[C@@H]1O[C@@H](C)[C@H](O)[C@@H](O)[C@H]1O)C(=O)N[C@@H](Cc1c[nH]c2ccccc12)C(=O)O` [Example 72, N-(α-L-Rhamnopyranosyloxyhydroxyphosphinyl)-L-leucyl-L-tryptophan], the IC50 in assay [1] came out at 3.8 nM. Moreover, in assay [2], the excretion of kinins result is given as “increased excretion of kinins”, the sodium excretion entry is listed as “increased sodium excretion”, the urinary kininase activity result was “decreased urinary kininase activity” and the urine volume result is listed as “increased urine volume”. For the same compound, the “inhibition of neutral endopeptidase” value in assay [3] is given as “inhibits neutral endopeptidase”. For the same compound, the “hydrolysis of α-human atrial natriuretic peptide” value in assay [4] is “suppressed”.
On to `O=C(O)CNC(=O)C(CS)Cc1ccccc1` (centres unmarked) [thiorphan, [(D,L)-3-mercapto-2-benzylpropanol]glycine], for which the “inhibitor of enkephalinase in vitro” value in assay [5] is recorded as “nanomolar concentrations”.

Values taken from patent publication US5496805A, “Inhibitors of neutral endopeptidase” (priority 1990, dated 1996).
